≈ marks a conversion by molar mass, not a printed value.
Tests used:
Escherichia coli [1] = assay: Antibacterial activity against Escherichia coli ATCC 35210 after 24 hrs by microdilution method; format: functional; conditions: ATCC 35210, 24 h
Trichoderma viride [2] = assay: Antifungal activity against Trichoderma viride IAM 5061 after 72 hrs by microdilution method; format: functional; conditions: IAM 5061, 72 h
Candida albicans [3] = assay: Antifungal activity against Candida albicans ATCC 10231 isolated from human after 72 hrs by microdilution method; format: functional; conditions: ATCC 10231, 72 h
Enterobacter cloacae [4] = assay: Bactericidal activity against Enterobacter cloacae ATCC 35030 isolated from human after 72 hrs by microdilution method; format: functional
Pseudomonas aeruginosa [5] = assay: Bactericidal activity against Pseudomonas aeruginosa ATCC 27853 after 72 hrs by microdilution method; format: functional
Escherichia coli [6] = assay: Bactericidal activity against Escherichia coli ATCC 35210 after 72 hrs by microdilution method; format: functional
Aspergillus niger [7] = assay: Antifungal activity against Aspergillus niger ATCC 6275 after 72 hrs by microdilution method; format: functional; conditions: ATCC 6275, 72 h
Talaromyces funiculosus [8] = assay: Fungicidal activity against Penicillium funiculosum ATCC 36839 after 72 hrs by microdilution method; format: functional
Bacillus cereus [9] = assay: Antibacterial activity against Bacillus cereus clinical isolate after 24 hrs by microdilution method; format: functional
Candida albicans [10] = assay: Fungicidal activity against Candida albicans ATCC 10231 isolated from human after 72 hrs by microdilution method; format: functional
Bacillus cereus [11] = assay: Bactericidal activity against Bacillus cereus clinical isolate after 72 hrs by microdilution method; format: functional
Aspergillus versicolor [12] = assay: Fungicidal activity against Aspergillus versicolor ATCC 11730 after 72 hrs by microdilution method; format: functional
Enterobacter cloacae [13] = assay: Antibacterial activity against Enterobacter cloacae ATCC 35030 isolated from human after 24 hrs by microdilution method; format: functional; conditions: ATCC 35030, 24 h
Listeria monocytogenes [14] = assay: Bactericidal activity against Listeria monocytogenes NCTC 7973 after 72 hrs by microdilution method; format: functional
Salmonella typhimurium [15] = assay: Antibacterial activity against Salmonella typhimurium ATCC 13311 after 24 hrs by microdilution method; format: functional, Salmonella enterica subsp. enterica serovar Typhimurium; conditions: Salmonella enterica, ATCC 13311, 24 h
Aspergillus versicolor [16] = assay: Antifungal activity against Aspergillus versicolor ATCC 11730 after 72 hrs by microdilution method; format: functional; conditions: ATCC 11730, 72 h
Talaromyces funiculosus [17] = assay: Antifungal activity against Penicillium funiculosum ATCC 36839 after 72 hrs by microdilution method; format: functional; conditions: ATCC 36839, 72 h
Listeria monocytogenes [18] = assay: Antibacterial activity against Listeria monocytogenes NCTC 7973 after 24 hrs by microdilution method; format: functional; conditions: NCTC 7973, 24 h
Penicillium ochrochloron [19] = assay: Antifungal activity against Penicillium ochrochloron ATCC 9112 after 72 hrs by microdilution method; format: functional; conditions: ATCC 9112, 72 h
Aspergillus ochraceus [20] = assay: Fungicidal activity against Aspergillus ochraceus ATCC 12066 after 72 hrs by microdilution method; format: functional
Penicillium ochrochloron [21] = assay: Fungicidal activity against Penicillium ochrochloron ATCC 9112 after 72 hrs by microdilution method; format: functional
Staphylococcus aureus [22] = assay: Antibacterial activity against Staphylococcus aureus ATCC 6538 after 24 hrs by microdilution method; format: functional; conditions: ATCC 6538, 24 h
Aspergillus ochraceus [23] = assay: Antifungal activity against Aspergillus ochraceus ATCC 12066 after 72 hrs by microdilution method; format: functional; conditions: ATCC 12066, 72 h
Salmonella typhimurium [24] = assay: Bactericidal activity against Salmonella typhimurium ATCC 13311 after 72 hrs by microdilution method; format: functional, Salmonella enterica subsp. enterica serovar Typhimurium
Aspergillus fumigatus [25] = assay: Fungicidal activity against Aspergillus fumigatus isolated from human after 72 hrs by microdilution method; format: functional
Micrococcus flavus [26] = assay: Bactericidal activity against Micrococcus flavus ATCC 10240 after 72 hrs by microdilution method; format: functional
Trichoderma viride [27] = assay: Fungicidal activity against Trichoderma viride IAM 5061 after 72 hrs by microdilution method; format: functional
Pseudomonas aeruginosa [28] = assay: Antibacterial activity against Pseudomonas aeruginosa ATCC 27853 after 24 hrs by microdilution method; format: functional; conditions: ATCC 27853, 24 h
Micrococcus flavus [29] = assay: Antibacterial activity against Micrococcus flavus ATCC 10240 after 24 hrs by microdilution method; format: functional; conditions: ATCC 10240, 24 h
Aspergillus fumigatus [30] = assay: Antifungal activity against Aspergillus fumigatus isolated from human after 72 hrs by microdilution method; format: functional
Aspergillus niger [31] = assay: Fungicidal activity against Aspergillus niger ATCC 6275 after 72 hrs by microdilution method; format: functional
Staphylococcus aureus [32] = assay: Bactericidal activity against Staphylococcus aureus ATCC 6538 after 72 hrs by microdilution method; format: functional
Aspergillus flavus [33] = assay: Fungicidal activity against Aspergillus flavus ATCC 9643 after 72 hrs by microdilution method; format: functional
Aspergillus flavus [34] = assay: Antifungal activity against Aspergillus flavus ATCC 9643 after 72 hrs by microdilution method; format: functional; conditions: ATCC 9643, 72 h

With `CNc1nc(C)c(C2=NN(c3ccccc3)C(c3ccc([N+](=O)[O-])cc3)C2)s1` (stereo not given) the MIC (Escherichia coli [1]) was 178 µM (≈ 70 µg/mL), the MIC (Trichoderma viride [2]) was 127 µM (≈ 50 µg/mL) and the MIC (Candida albicans [3]) was 305 µM (≈ 120 µg/mL). It also gave an MBC99.5 (Enterobacter cloacae [4]) of 20.3 ×10⁻² umol/ml, an MBC99.5 (Pseudomonas aeruginosa [5]) of 25.4 ×10⁻² umol/ml and an MBC99.5 (Escherichia coli [6]) of 20.3 ×10⁻² umol/ml. For the same compound, the MIC (Aspergillus niger [7]) was 254 µM (≈ 99.9 µg/mL), the MFC99.5 (Talaromyces funiculosus [8]) was 32.2 ×10⁻² umol/ml and the MIC (Bacillus cereus [9]) was 203 µM (≈ 79.9 µg/mL). For the same compound, the MFC99.5 (Candida albicans [10]) was 40.6 ×10⁻² umol/ml, the MBC99.5 (Bacillus cereus [11]) was 25.4 ×10⁻² umol/ml and the MFC99.5 (Aspergillus versicolor [12]) was 32.2 ×10⁻² umol/ml. It also gave an MIC (Enterobacter cloacae [13]) of 127 µM (≈ 50 µg/mL), an MBC99.5 (Listeria monocytogenes [14]) of 10.2 ×10⁻² umol/ml and an MIC (Salmonella typhimurium [15]) of 152 µM (≈ 59.8 µg/mL). It also gave an MIC (Aspergillus versicolor [16]) of 254 µM (≈ 99.9 µg/mL), an MIC (Talaromyces funiculosus [17]) of 254 µM (≈ 99.9 µg/mL) and an MIC (Listeria monocytogenes [18]) of 76 µM (≈ 29.9 µg/mL). For the same compound, the MIC (Penicillium ochrochloron [19]) was 254 µM (≈ 99.9 µg/mL), the MFC99.5 (Aspergillus ochraceus [20]) was 20.3 ×10⁻² umol/ml and the MFC99.5 (Penicillium ochrochloron [21]) was 32.2 ×10⁻² umol/ml. For the same compound, the MIC (Staphylococcus aureus [22]) was 102 µM (≈ 40.1 µg/mL), the MIC (Aspergillus ochraceus [23]) was 127 µM (≈ 50 µg/mL) and the MBC99.5 (Salmonella typhimurium [24]) was 25.4 ×10⁻² umol/ml. For the same compound, the MFC99.5 (Aspergillus fumigatus [25]) was 15.2 ×10⁻² umol/ml, the MBC99.5 (Micrococcus flavus [26]) was 20.3 ×10⁻² umol/ml and the MFC99.5 (Trichoderma viride [27]) was 15.2 ×10⁻² umol/ml. For the same compound, the MIC (Pseudomonas aeruginosa [28]) was 203 µM (≈ 79.9 µg/mL), the MIC (Micrococcus flavus [29]) was 127 µM (≈ 50 µg/mL) and the MIC (Aspergillus fumigatus [30]) was 127 µM (≈ 50 µg/mL). For the same compound, the MFC99.5 (Aspergillus niger [31]) was 32.2 ×10⁻² umol/ml and the MBC99.5 (Staphylococcus aureus [32]) was 20.3 ×10⁻² umol/ml.
Work on `CNc1nc(C)c(C2=NN(c3ccccc3)C(c3ccc(Cl)cc3)C2)s1` (stereo not given) yielded an MIC (Escherichia coli [1]) of 183 µM (≈ 70.1 µg/mL), an MIC (Trichoderma viride [2]) of 131 µM (≈ 50.2 µg/mL) and an MIC (Candida albicans [3]) of 157 µM (≈ 60.1 µg/mL). The MBC99.5 (Enterobacter cloacae [4]) was 18.3 ×10⁻² umol/ml, the MBC99.5 (Pseudomonas aeruginosa [5]) was 31.4 ×10⁻² umol/ml and the MBC99.5 (Escherichia coli [6]) was 21 ×10⁻² umol/ml. For the same compound, the MIC (Aspergillus niger [7]) was 131 µM (≈ 50.2 µg/mL), the MFC99.5 (Talaromyces funiculosus [8]) was 36.7 ×10⁻² umol/ml and the MIC (Bacillus cereus [9]) was 157 µM (≈ 60.1 µg/mL). For the same compound, the MFC99.5 (Candida albicans [10]) was 26.2 ×10⁻² umol/ml, the MBC99.5 (Bacillus cereus [11]) was 31.4 ×10⁻² umol/ml and the MFC99.5 (Aspergillus versicolor [12]) was 21 ×10⁻² umol/ml. It also gave an MIC (Enterobacter cloacae [13]) of 131 µM (≈ 50.2 µg/mL), an MBC99.5 (Listeria monocytogenes [14]) of 10.5 ×10⁻² umol/ml and an MIC (Salmonella typhimurium [15]) of 152 µM (≈ 58.2 µg/mL). For the same compound, the MIC (Aspergillus versicolor [16]) was 131 µM (≈ 50.2 µg/mL), the MIC (Talaromyces funiculosus [17]) was 262 µM (≈ 100 µg/mL) and the MIC (Listeria monocytogenes [18]) was 52 µM (≈ 19.9 µg/mL). The MIC (Penicillium ochrochloron [19]) was 131 µM (≈ 50.2 µg/mL), the MFC99.5 (Aspergillus ochraceus [20]) was 15.7 ×10⁻² umol/ml and the MFC99.5 (Penicillium ochrochloron [21]) was 15.7 ×10⁻² umol/ml. For the same compound, the MIC (Staphylococcus aureus [22]) was 105 µM (≈ 40.2 µg/mL), the MIC (Aspergillus ochraceus [23]) was 131 µM (≈ 50.2 µg/mL) and the MBC99.5 (Salmonella typhimurium [24]) was 18.3 ×10⁻² umol/ml. The MFC99.5 (Aspergillus fumigatus [25]) was 26.2 ×10⁻² umol/ml, the MBC99.5 (Micrococcus flavus [26]) was 21 ×10⁻² umol/ml and the MFC99.5 (Trichoderma viride [27]) was 21 ×10⁻² umol/ml. For the same compound, the MIC (Pseudomonas aeruginosa [28]) was 152 µM (≈ 58.2 µg/mL), the MIC (Micrococcus flavus [29]) was 105 µM (≈ 40.2 µg/mL) and the MIC (Aspergillus fumigatus [30]) was 131 µM (≈ 50.2 µg/mL). For the same compound, the MFC99.5 (Aspergillus niger [31]) was 26.2 ×10⁻² umol/ml and the MBC99.5 (Staphylococcus aureus [32]) was 21 ×10⁻² umol/ml.
For `c1ccc(-c2ccc(C(c3ccccc3)n3ccnc3)cc2)cc1` (stereo not given) [BIFONAZOLE], the MIC (Trichoderma viride [2]) was 640 µM (≈ 199 µg/mL), the MIC (Candida albicans [3]) was 322 µM (≈ 99.9 µg/mL) and the MIC (Aspergillus niger [7]) was 480 µM (≈ 149 µg/mL). It also gave an MFC99.5 (Aspergillus flavus [33]) of 64 ×10⁻² umol/ml, an MFC99.5 (Talaromyces funiculosus [8]) of 80 ×10⁻² umol/ml and an MFC99.5 (Candida albicans [10]) of 48.3 ×10⁻² umol/ml. The MFC99.5 (Aspergillus versicolor [12]) was 64 ×10⁻² umol/ml, the MIC (Aspergillus flavus [34]) was 480 µM (≈ 149 µg/mL) and the MIC (Aspergillus versicolor [16]) was 480 µM (≈ 149 µg/mL). For the same compound, the MIC (Talaromyces funiculosus [17]) was 640 µM (≈ 199 µg/mL), the MIC (Penicillium ochrochloron [19]) was 480 µM (≈ 149 µg/mL) and the MFC99.5 (Aspergillus ochraceus [20]) was 80 ×10⁻² umol/ml. It also gave an MFC99.5 (Penicillium ochrochloron [21]) of 64 ×10⁻² umol/ml, an MIC (Aspergillus ochraceus [23]) of 480 µM (≈ 149 µg/mL) and an MFC99.5 (Aspergillus fumigatus [25]) of 64 ×10⁻² umol/ml. The MFC99.5 (Trichoderma viride [27]) was 80 ×10⁻² umol/ml, the MIC (Aspergillus fumigatus [30]) was 480 µM (≈ 149 µg/mL) and the MFC99.5 (Aspergillus niger [31]) was 64 ×10⁻² umol/ml.
`CC(=O)N1CCN(c2ccc(OCC3COC(Cn4ccnc4)(c4ccc(Cl)cc4Cl)O3)cc2)CC1` (stereo not given) [KETOCONAZOLE] showed an MIC (Trichoderma viride [2]) of 4750 µM (≈ 2520 µg/mL), an MIC (Candida albicans [3]) of 376 µM (≈ 200 µg/mL) and an MIC (Aspergillus niger [7]) of 380 µM (≈ 202 µg/mL). It also gave an MFC99.5 (Aspergillus flavus [33]) of 380 ×10⁻² umol/ml, an MFC99.5 (Talaromyces funiculosus [8]) of 95 ×10⁻² umol/ml and an MFC99.5 (Candida albicans [10]) of 94 ×10⁻² umol/ml. The MFC99.5 (Aspergillus versicolor [12]) was 380 ×10⁻² umol/ml, the MIC (Aspergillus flavus [34]) was 2850 µM (≈ 1510 µg/mL) and the MIC (Aspergillus versicolor [16]) was 2850 µM (≈ 1510 µg/mL). For the same compound, the MIC (Talaromyces funiculosus [17]) was 380 µM (≈ 202 µg/mL), the MIC (Penicillium ochrochloron [19]) was 3800 µM (≈ 2020 µg/mL) and the MFC99.5 (Aspergillus ochraceus [20]) was 95 ×10⁻² umol/ml. The MFC99.5 (Penicillium ochrochloron [21]) was 380 ×10⁻² umol/ml, the MIC (Aspergillus ochraceus [23]) was 380 µM (≈ 202 µg/mL) and the MFC99.5 (Aspergillus fumigatus [25]) was 95 ×10⁻² umol/ml. For the same compound, the MFC99.5 (Trichoderma viride [27]) was 570 ×10⁻² umol/ml, the MIC (Aspergillus fumigatus [30]) was 380 µM (≈ 202 µg/mL) and the MFC99.5 (Aspergillus niger [31]) was 95 ×10⁻² umol/ml.
